Several values for one entry are separate records, joined by “and”; a condition that tells them apart may be missing. Identical values can stand only once.

The values below come from publication PMC9378861, “Formation and metabolism of 6-(1-acetol)-8-(1-acetol)-rutin in foods and in vivo, and their cytotoxicity” (Frontiers in Nutrition, 2022).

Series [1] can be described thus: Rutin-MGO adducts in tissues, urine and feces of rats 24 h after oral rutin. The class given is in vivo, Sprague–Dawley rats. To be noted: for Concentration in feces: feces collected within 24 h after rutin 100 mg/kg BW oral; for Concentration in urine: urine collected within 24 h after rutin 100 mg/kg BW oral. The method, then:
(§1) The animals were treated as described in the study by Chen et al. ([22]). In brief, five 7 weeks old male Sprague–Dawley rats (190–220 g) were exposed to rutin (100 mg/kg BW) by oral gavage after fasting for 16 h. The plasma samples were collected at 0.25, 0.5, 1, 2, 4, 6, 8, 10, and 24 h after the administration, and stored under −80°C until analysis. The feces and urine were collected with the metabolic cages throughout the 24 h period. At 24 h, the rats were sacrificed after anesthetization, and the tissues including stomach, intestine (divided into duodenum, jejunum, ileum, caecum, and colon), heart, liver, kidney, and brain were taken and frozen immediately in liquid nitrogen and transferred to a deep freezer (−80°C) for storage before analysis. The procedures of the animal study followed the protocol by the Institutional Animal Care and Use Committee of the Laboratory Animal Center of Jinan University.
(§2) The plasma samples were treated as described by Chen et al. ([22]). About half gram of feces and tissue samples were weight accurately, and homogenized with 2 mL saline on an ice-bath. The homogenates were transferred to a centrifuge tube, added with 1 mL PBS (pH 5.0, 0.05 M) and 100 μL ascorbic acid (150 mg/mL), and extracted with 3 mL of methanol twice. The supernatants were combined after centrifugation at 13,000 × g under 4 °C for 10 min, evaporated to dryness, re-dissolved in 500 μL of 50% aqueous methanol containing 0.1% formic acid (v/v), and filtered through a 0.22 μm membrane for HPLC-MS/MS analysis. The adducts in 200 μL of urine were extracted twice with 1 mL methanol. The supernatants were collected after centrifugation at 13,000 × g under 4°C for 10 min, and evaporated to dryness. The residues were dissolved in 200 μL of 50% aqueous methanol containing 0.1% formic acid (v/v), and filtered through a 0.22 μm membrane for HPLC-MS/MS analysis. A sample of 1 μL was injected into an Agilent Technologies 1,260 Infinity HPLC (Agilent Technologies, CA, USA) interfaced to an AB 4500 Q-Trap mass spectrometer (AB Sciex, MA, USA) in the negative mode for quantification of adducts A and B, respectively. The eluting programs for HPLC analysis, and the operation conditions of mass spectrometer refers to those established by Chen et al. ([22]). […] Moreover, as the information on the occurrence levels of 6-(1,2-propanedione)-8-(1-acetol)-rutin, 6-(1-acetol)-8-(1,2-propanedione)-rutin, and 6-(1,2-propanedione)-8-(1,2-propanedione)-rutin discovered in the last study was still missing, the concentration of these oxidized rutin-MGO adducts in various tissues and urine and feces were also determined in this study. The qualification and quantification fragmentation transitions of these adducts refers to those provided previously ([22]).

The conditions of series [2]: rats, 15 min after administration of rutin; cited from earlier work.
Series [3] is described as follows: Plasma concentration of rutin-MGO adducts in rats after oral rutin (HPLC-MS/MS, MRM). The class given is in vivo, Sprague–Dawley rats. The method, then:
as §1, §2

The conditions of series [4]: cited from earlier work; for Elimination rate on MGO (MGO scavenged): incubated with MGO at 37°C for 24 h.
The subject of series [5] is human umbilical vein endothelial (HUVEC) cell. The series is described as follows: Cytotoxicity by MTT assay, HUVEC. The series is classed as cell-based. Particulars: 1 mM, 24 h. For orientation: Tetrazolium dyes change colour on reduction, which living cells bring about.
Series [6] relates to human colon carcinoma cell line (Caco-2). The series is described as follows: Cytotoxicity by MTT assay, Caco-2. To be noted: Caco-2, 1 mM, 24 h. The series is classed as cell-based.
Series [7] has as its system human gastric epithelial cell line (GES-1). The experiment in a line: Cytotoxicity by MTT assay, GES-1. The series is classed as cell-based. To be noted: 24 h.
Another series concerns AGEs. To be noted: cited from earlier work.
Details of series [8]: method as in PMID 19916501. To be noted: anesthetized, mesenteric lymphatic/duodenum-cannulated rat model; cited from earlier work.
The mark [9] stands for this setting: 24 h after rutin 100 mg/kg BW oral.
Setting [10] is: rutin 100 mg/kg BW oral gavage, time point 0.25 h.
Setting [11] is: rutin 100 mg/kg BW oral gavage, time point 1.00 h.
Where [12] appears, read: rutin 100 mg/kg BW oral gavage, time point 2.00 h.

`CC(=O)C(=O)c1c(O)c(C(=O)C(C)=O)c2oc(-c3ccc(O)c(O)c3)c(O[C@@H]3O[C@H](CO[C@@H]4O[C@@H](C)[C@H](O)[C@@H](O)[C@H]4O)[C@@H](O)[C@H](O)[C@H]3O)c(=O)c2c1O` [6-(1,2-propanedione)-8-(1,2-propanedione)-rutin]: in series [1] (setting [9]), the Concentration in brain was 0.12 ± 0.02 µg/kg, the Concentration in caecum entry was “trace”, the Concentration in heart amounted to 0.14 ± 0.09 µg/kg and the Concentration in ileum entry was “trace”. In [1] (setting [9]), the Concentration in kidney amounted to 0.16 ± 0.04 µg/kg; the Concentration in liver is 0.09 µg/kg and 0.09 ± 0.01 µg/kg; the Concentration in stomach was 0.10 µg/kg and 0.10 ± 0.01 µg/kg. Besides, in series [1], the Concentration in feces worked out at 0.26 ± 0.18 µg/kg; the Concentration in urine is 0.10 µg/L and 0.10 ± 0.01 µg/L. In [1] (feces within 24 h after rutin 100 mg/kg BW oral), the “Content in feces, folds lower than 6-(1,2-propanedione)-8-(1-acetol)-rutin and 6-(1-acetol)-8-(1,2-propanedione)-rutin” value is listed as 6–9 folds. The “Plasma concentration of oxidized rutin-MGO adducts” value in series [2] is 1.02 µg/L.
For `CC(=O)C(=O)c1c(O)c(C(O)C(C)=O)c2oc(-c3ccc(O)c(O)c3)c(OC3OC(COC4OC(C)C(O)C(O)C4O)C(O)C(O)C3O)c(=O)c2c1O` (stereo not shown) [6-(1,2-propanedione)-8-(1-acetol)-rutin], in [1] (setting [9]), the Concentration in brain stood at 0.11 ± 0.02 µg/kg, the Concentration in heart is 0.09 ± 0.03 µg/kg, the Concentration in ileum result was “trace” and the Concentration in kidney amounted to 0.07 ± 0.01 µg/kg. Also, in [1] (setting [9]), the Concentration in liver entry is recorded as “trace”. In [1], the Concentration in feces amounted to 1.54 ± 0.49 µg/kg and the Concentration in urine entry was “trace”. In [2], the “Plasma concentration of oxidized rutin-MGO adducts” value was 2.38 µg/L.
With `CC(=O)C(=O)c1c(O)c(C(O)C(C)=O)c(O)c2c(=O)c(O[C@@H]3O[C@H](CO[C@@H]4O[C@@H](C)[C@H](O)[C@@H](O)[C@H]4O)[C@@H](O)[C@H](O)[C@H]3O)c(-c3ccc(O)c(O)c3)oc12` (stereo partly shown) [6-(1-acetol)-8-(1,2-propanedione)-rutin], in series [1] (setting [9]), the Concentration in brain was 0.45 ± 0.28 µg/kg, the Concentration in colon entry is reported as “trace”, the Concentration in heart entry is reported as “trace” and the Concentration in ileum result is “trace”. In series [1] (setting [9]), the Concentration in kidney is 0.12 ± 0.02 µg/kg, the Concentration in liver result is listed as “trace” and the Concentration in stomach result was “trace”. Moreover, in series [1], the Concentration in feces turned out to be 2.23 ± 0.54 µg/kg; the Concentration in urine was 0.09 µg/L and 0.09 ± 0.00 µg/L. The “Plasma concentration of oxidized rutin-MGO adducts” value in series [2] is 1.61 µg/L.
`CC(=O)C(O)c1c(O)c(C(O)C(C)=O)c2oc(-c3ccc(O)c(O)c3)c(O[C@@H]3O[C@H](CO[C@@H]4O[C@@H](C)[C@H](O)[C@@H](O)[C@H]4O)[C@@H](O)[C@H](O)[C@H]3O)c(=O)c2c1O` (stereo partly shown) [6-(1-acetol)-8-(1-acetol)-rutin]: the “Total (maximum) level in plasma, sum of adducts A and B” value in series [3] (15 min after oral rutin 100 mg/kg BW) came to 15.80 µg/L.
Regarding `O=C(O[C@@H]1Cc2c(O)cc(O)cc2O[C@@H]1c1cc(O)c(O)c(O)c1)c1cc(O)c(O)c(O)c1` [(–)-epigallocatechin gallate], in [4], the “Elimination rate on MGO (MGO scavenged)” value is given as 99%.
Take `CC(=O)C(O)c1c(O)c(C(O)C(C)=O)c2oc(-c3ccc(O)c(O)c3)c(OC3OC(COC4OC(C)C(O)C(O)C4O)C(O)C(O)C3O)c(=O)c2c1O` (stereo not shown) [Adduct A, 6-(1-acetol)-8-(1-acetol)-rutin]: the “Reduction of cell viability (cells dead)” value is 19% in series [5]; 19% in series [6]; 27% in series [7] (GES-1, 1 mM). In [1] (setting [9]), the Concentration in kidney result was “trace”. The Concentration in feces entry in [1] is given as “Trace”. Also, the concentration at 0.25 h in series [3] (male, Sprague-Dawley, rat, plasma, oral, rutin 100 mg/kg BW oral gavage, time point 0.25 h) is 9.4 ng/mL. Also, the Plasma concentration was 9.40 ± 6.37 µg/L in series [3] (setting [10]); “trace” in series [3] (setting [11]); “trace” in [3] (setting [12]); “trace” in series [3] (rutin 100 mg/kg BW oral gavage, time point 10.00 h).
On to `CC(=O)C(O)c1c(O)c(C(O)C(C)=O)c2oc(-c3ccc(O)c(O)c3)c(OC3OC(COC4OC(C)C(O)C(O)C4O)C(O)C(O)C3O)c(=O)c2c1O` (stereo not shown) [Adduct B, 6-(1-acetol)-8-(1-acetol)-rutin], for which the “Reduction of cell viability (cells dead)” value in series [5] is on record as 16%; in series [6] it was 18%; in series [7] (GES-1, 1 mM), 25%. Further, the Concentration in kidney entry in series [1] (setting [9]) is on record as “trace”. The Concentration in feces result in series [1] is “Trace”. Further, the Plasma concentration in [3] (setting [10]) was 6.40 µg/L and 6.40 ± 3.90 µg/L; in series [3] (setting [11]), “trace”; in [3] (setting [12]), “trace”; in series [3] (rutin 100 mg/kg BW oral gavage, time point 8.00 h) it was “trace”; in series [3] (rutin 100 mg/kg BW oral gavage, time point 24.00 h), “trace”.
Consider `CC(=O)C=O` [MGO, Methylglyoxal], for which the “Growth of the cells inhibited” value was “more than 50%” in series [7] (GES-1, 600 μM) and 18–19% in series [7] (GES-1, 200–400 μM). In [7] (GES-1, 1 mM), the Cells left alive is on record as 17%.
As to `O=c1cc(-c2ccc(O)cc2)oc2cc(O)cc(O)c12` [apigenin], the “Elimination rate on MGO (MGO scavenged)” value in series [4] is 40%.
Regarding `Oc1cc(O)c2c(c1)O[C@H](c1ccc(O)c(O)c1)[C@H](O)C2` [epicatechin], the “Elimination rate on MGO (MGO scavenged)” value in [4] is reported as 99%.
With `COc1ccc([C@@H]2CC(=O)c3c(O)cc(O)cc3O2)cc1O` [hesperetin], the “Elimination rate on MGO (MGO scavenged)” value in series [4] is 63%.
In the case of `O=C(CCc1ccc(O)cc1)c1c(O)cc(O)cc1O` [phloretin], the “Elimination rate on MGO (MGO scavenged)” value in series [4] is 99%.
As to `C[C@@H]1O[C@@H](OC[C@H]2O[C@@H](Oc3c(-c4ccc(O)c(O)c4)oc4cc(O)cc(O)c4c3=O)[C@H](O)[C@@H](O)[C@@H]2O)[C@H](O)[C@H](O)[C@H]1O` [rutin, quercetin-3-O-rutinoside], the “Reduction of cell viability (cells dead)” value amounted to 12% in series [5]; 15% in [6]; 16% in [7] (GES-1, 1 mM). Further, in the series with AGEs, the “Inhibitory effect on the formation of AGEs in glycation reaction” value is reported as “more than 90%”. In [4] (rutin 0.5 mM with MGO 0.5 mM, 37 °C, 24 h, simulated physiological condition), the MGO eliminated is listed as 50%. For the same molecule, in [8], the “Time at which plasma concentration reached maximum” value is 60 min.
